Patent publication US9901591B2, “Paeoniflorin preparations and uses thereof for fat reduction” (priority 2008, dated 2018)
“And” between values parts separate entries of the source, which are not always exact repeats. Equal values may be shown once.

Key:
intracellular cyclic AMP = assay: Intracellular cyclic AMP by ELISA in 3T3-L1 adipocytes; type: cell-based, mouse; conditions: PF, vs control
Description: 3T3-L1 adipocytes were cultured in medium containing […] PF as test group and medium only as control. Cells were lysed by adding 0.1 N HCL, and intracellular cyclic AMP was measured by ELISA.

[1] = system: Hormone sensitive lipase (HSL); assay: Semi-quantitative RT-PCR of HSL expression in 3T3-L1 adipocytes; type: cell-based, mouse; conditions: 1 mol/L PF, from the third day after exposure
Description: 3T3-L1 adipocytes were cultured in medium containing […] PF as a test group and medium only as the control group. Total RNA was extracted and reverse transcribed to cDNA employing conventional methods known to those of skill in the art. Primers used for polymerase chain reaction (PCR) amplification of mouse HSL primers were selected based on published sequence (NM_010719) (expected PCR fragment: 409 bp): For semi-quantitative analysis, the amplification cycles were chosen within the linear range (HSL: 24 cycles with […] at 58° C., GAPDH: 21 cycles with […] at 58° C.).

[2] = system: Adiponectin receptor 1 (Adipor1); assay: Oligo GEArray microarray of obesity-related genes in 3T3-L1 adipocytes; type: cell-based, mouse; conditions: for Ratio of expression signals of Adipor1 compared to control: 1 umol/L PF, control = 1
Description: 3T3-L1 adipocytes were cultured in medium containing 1 umol/L PF as test group and medium only as control. Total RNA was extracted and Oligo GEArray was tested using Superarray OMM-17. The GEArray includes 111 obesity-related genes that are directly involved in the regulation of energy intake and expenditure. The genes included orexigenic peptides, hormones, and receptors, anorectic peptides, hormones, receptors, and central and peripheral signaling molecules involved in energy expenditure. The increase changes or decrease changes of more than 1.5 fold are regarded meaningful according to the diagnosis discipline, as described in the insert literature of a metabolic disease/obesity gene panel product purchased from Superarray Bioscience Corporation. (Frederick, Md.). […] In the graphs, the data above the upper line and the data below the lower line show a significant change of gene expression.

Carboxypeptidase E (Cpe) = assay: as above; type: cell-based, mouse; conditions: for Ratio of expression signals of Cpe compared to control: 1 umol/L PF, control = 1
Description: 3T3-L1 adipocytes were cultured in medium containing 1 umol/L PF as test group and medium only as control. Total RNA was extracted and Oligo GEArray was tested using Superarray OMM-17. The GEArray includes 111 obesity-related genes that are directly involved in the regulation of energy intake and expenditure. The genes included orexigenic peptides, hormones, and receptors, anorectic peptides, hormones, receptors, and central and peripheral signaling molecules involved in energy expenditure. The increase changes or decrease changes of more than 1.5 fold are regarded meaningful according to the diagnosis discipline, as described in the insert literature of a metabolic disease/obesity gene panel product purchased from Superarray Bioscience Corporation. (Frederick, Md.).
In the graphs, the data above the upper line and the data below the lower line show a significant change of gene expression.

[3] = Blood indices before and after PF treatment in patients; type: in vivo, human
Description: Eight patients were treated with PF. The levels of three indices such as serum cholesterol, LDL Cholesterol, serum triglycerides in blood were tested before and after treatment.

[4] = Targeted fat reduction with injectable PF preparation in patients; type: in vivo, human
Description: 1 ml of PF (1) at a concentration of 1 mol is mixed with 4 ml injectable water and 5 ml (phosphatidyl choline (PPC)) prepared from soya bean extract and 5 ml 2% lidocaine. A total of 15 ml solution. This solution is mixed together in a 20 ml syringe and the needle is changed to a small insulin needle Gauge 30×½ as shown therein before the actual injections are given. The solution is then given subcutaneously directly into the fat areas at a dose of 0.5 ml per site totaling 20 injections. These injections are spread out to cover a big surface area, e.g. could be spread out through a whole midsection (“love handle”) in case of a larger patient, or if the patient were an average size it could be spread out to cover right and left love handles in one session. For reference, please refer to the patients injected in the thigh and buttocks area, for explanation. This patient was injected with 30 smaller injections of 0.2 ml per site, and they were spread through out the whole outer and inner thigh and buttocks areas on the right side. 0.5 mg of PF was dissolved in 5 ml of injectable water rendering a concentration of 0.1 mg/ml. This was then mixed with 5 ml of Phosphatidyl Choline in a 20 ml syringe. The large gauge needle was then replaced with a smaller gauge (Gauge 27-30, in some embodiments, a 30 gauge×½) insulin needle and the 10 ml was injected into 20 different sites of a given area. 0.5 ml of the solution was injected into the stomach, with about 1 cm separating each injection site.

[5] = human, in vivo
Description: For Regular Injections: After sterilization of the surface area with 74% ethanol, topical application of lignocaine ointment or lidocaine gel was applied for 5 minutes to numb the skin where the injections are to take place.
For Booster Injection: The patient is prepared using 1 ml of 2% lidocaine to anaesthetize the site of entry of the large needle. This way, the procedure is almost painless. 3-5 minutes later, the booster injection is given slowly over a 3 minute period.
Patients are forewarned that bruising may occur due to the injections. Thus, some bruising in a patient may be expected. […] The bruising, usually disappears within 1 week. In addition, redness and tenderness at the injection site of the booster, is very common. Redness lasts for a couple of hours and the tenderness lasts for a couple of days. Bruising, is encountered more with the booster than the regular injections, but also disappears within a week or so. Another observation is fatigue as a result of treatment in some patients. […] In addition, a very slight rise in temperature, to about 37.1 or 37.2 for a few hours, was noted.

[6] = Blood indices before and after PF treatment in patients; type: in vivo, human; conditions: before vs after treatment with PF
[7] = Targeted fat reduction with injectable PF preparation in patients; type: in vivo, human; conditions: alternative protocol, 20 small (0.1 to 0.2 ml) injections per session, 5 sessions

C[C@@]12C[C@@]3(O)O[C@@H](O1)[C@]1(COC(=O)c4ccccc4)[C@H]3C[C@@]12O[C@@H]1O[C@H](CO)[C@@H](O)[C@H](O)[C@H]1O [PF, paeoniflorin]
intracellular cAMP (intracellular cyclic AMP; first day / 24 hours): significantly increased
intracellular cAMP (intracellular cyclic AMP; third day / 72 hours): significantly increased
expression of HSL [1]: increased the expression of HSL
Ratio of expression signals of Adipor1 compared to control ([2]; 3 days): 0.68
Ratio of expression signals of Adipor1 compared to control ([2]; 6 days): 1.21
Ratio of expression signals of Adipor1 compared to control ([2]; 7 days): 1.86
increase of Adipor1 expression ([2]; day 7 of exposure to PF): 1.86 fold
Ratio of expression signals of Cpe compared to control (Carboxypeptidase E (Cpe); 3 days): 0.79
Ratio of expression signals of Cpe compared to control (Carboxypeptidase E (Cpe); 6 days): 1.04
Ratio of expression signals of Cpe compared to control (Carboxypeptidase E (Cpe); 7 days): 2.67
increase of Cpe expression compared to the control (Carboxypeptidase E (Cpe); day 7 of exposure to PF): 2.67 fold
Serum Triglycerides Post-tx, Ave ([3]; average of eight patients, Pre-tx Ave 79.38, P 0.462, NR: 35-160): 72.50 mg/dL
LDL Cholesterol Post-tx, Ave ([3]; average of eight patients, Pre-tx Ave 122.81, P 0.452, NR: 60-150): 112.69 mg/dL
Serum Cholesterol Post-tx, Ave ([3]; average of eight patients, Pre-tx Ave 202.88, P 0.002, NR: 50-200): 172.75 mg/dL
Serum cholesterol, LDL Cholesterol, serum triglycerides in blood, change after treatment ([3]; eight patients, before vs after treatment): reduced after PF treatment
Serum Triglycerides Post-tx ([3]; individual cases 1-8, after PF treatment, NR: 35-160): 60 mg/dL and 59 mg/dL and 67 mg/dL and 71 mg/dL and 110 mg/dL and 55 mg/dL and 85 mg/dL and 73 mg/dL
Serum Cholesterol Post-tx ([3]; individual cases 1-8, after PF treatment, NR: 50-200): 135 mg/dL and 151 mg/dL and 222 mg/dL and 168 mg/dL and 237 mg/dL and 150 mg/dL and 148 mg/dL and 171 mg/dL
LDL Cholesterol Post-tx ([3]; individual cases 1-8, after PF treatment, NR: 60-150): 75 mg/dL and 92 mg/dL and 146 mg/dL and 108 mg/dL and 176.5 mg/dL and 98 mg/dL and 93 mg/dL and 113 mg/dL
weight loss ([4]; 2 sessions together with an aerobic instructor, in 2 weeks): over 3 pounds
Size at End of Treatment, stomach area ([4]; Patient 1, 6 weeks/11 sessions, size before start 90 cm): 83 cm
Size at End of Tx, stomach area ([4]; Patient 2, 5 weeks/9 sessions, size before start 96 cm): 90 cm
Size at End, both upper arms ([4]; Patient 3, 1 month/8 sessions (4 per side), size before start 40 cm): 36.5 cm
fat loss ([4]; each 10 sessions): about 7 cm
fat loss ([4]; in 5 sessions of 20 injections of 0.5 ml): 3 cm
sessions until a noticeable difference was seen ([4]; on average, sessions of 20 injections): 4-5 sessions
fat loss ([4]; one patient, 10 sessions over about 6 weeks): more than 5 inches
sessions per 1 cm of fat dissolved ([4]; stomach and thigh areas, human): 1-1.5 sessions
fat dissolved per session ([4]; upper arms areas, human): about 1 cm
fat lost ([4]; with 10 sessions): over 5 pounds
bruising [5]: bruising was observed
diarrhea [5]: No diarrhea was observed
dizziness [5]: observed in a few patients
fatigue [5]: Two patients suffered from fatigue
redness and tenderness at the injection site [5]: very common
rise in temperature [5]: about 37.1 or 37.2
stool [5]: softer stool was reported
time until bruising disappears [5]: ≤ 1 week
blood sugar levels [6]: decreased upon treatment
measurable fat loss [7]: 3 cm
